Data: US6893665B2, “Formulations for treating or preventing mucositis” (Orapharma, Inc., priority 1999, dated 2005)
Counter-ions that a name gives are not always drawn.

Tested on: mucositis induced by acute radiation exposure of the cheek pouch
Assay: Hamster cheek pouch model of radiation-induced oral mucositis, topical dosing, clinical scoring 0-5
Assay type: in vivo
Conditions: hamsters, 35 Gy on Day 0, 0.1 mL of 0.1 mg/mL aqueous solution topically three times a day for 22 days; for mucositis scores (clinical scoring 0-5) versus placebo control group: compared with solution without drug
Experimental: Hamsters were randomly assigned to treatment groups with eight (8) animals per group. Each group was treated either with a drug solution or a control, water.
Animals were dosed three times a day for 22 days. The first dose was applied on day —1. Either a solution of the drug or water alone was applied in a volume of 0.1 ml three times per day.
Mucositis was induced by acute radiation exposure of the check pouch. A single dose of radiation (35 Gy/dose) was administered to all animals on Day 0. Prior to irradiation, animals were anesthetized with an intraperiotoneal injection of sodium pentobarbital (80 mg/kg) and the left buccal pouch was everted, fixed and isolated using a lead shield.
Beginning on day 6 and continuing every other day up to day 28, the cheek pouch was photographed. On days that photographs were taken, prior to the first dosing of the day, the animals were anesthetized using an inhalation anesthetic and the left cheek pouch of each animal was rinsed vigorously with sterile water to remove residual food debris or foreign contamination and blotted dry with a gauze sponge. The appearance of the cheek pouch was scored visually by comparison to a validated photographic scale, ranging from 0 for normal to 5 for severe ulceration (clinical scoring). In descriptive terms, this scale is defined as follows: […]
A score of 1-2 represents mild stage of the disease, whereas a score of 3-5 indicates moderate to severe mucositis.

Compound	reduction in the number of animal days with scores of 3 or more, relative to the control group	mucositis scores (clinical scoring 0-5) versus placebo control group
CN(C)[C@@H]1C(O)=C(C(N)=O)C(=O)[C@@]2(O)C(O)=C3C(=O)c4c(O)cccc4[C@@](C)(O)[C@H]3C[C@@H]12 [tetracycline hydrochloride]	more than 75%	Significantly lower scores
meclocycline sulfosalicylate	more than 75%	Significantly lower scores
